Data on seven molecules can be found in PubChem BioAssay (NCI).

Holding throughout (assay): inhibition of tumour cell growth, NCI panel, 48 h
Assay [1] has as its system HCT-15 colon.
The test system of assay [2] is IGROV1 ovarian.
Assay [3] has as its system MALME-3M melanoma.
The subject of assay [4] is MDA-MB-231 breast.
Assay [5] relates to OVCAR-8 ovarian.
Assay [6] relates to SF-268 CNS.
The subject of assay [7] is SF-295 CNS.
The subject of assay [8] is SK-MEL-28 melanoma.
The test system of assay [9] is SK-OV-3 ovarian.
For assay [10], the system named is SR leukemia.

The structures appear in SMILES notation. Values joined by “and” are separate entries in the source; they are usually repeats but may differ in a detail not shown here. Identical values can stand only once.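 Interpolation was linear, between the two tested concentrations surrounding the appropriate level; five concentrations were tested over 48 hours in 96-well plates. Abbreviation: GI50, concentration required for 50% inhibition of growth. The concentration for full growth arrest is given as TGI.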 Bounds are passed on as bounds.

Take `N#C/C(=C/C=C/c1cccc(Cl)c1)S(=O)c1ccccc1` (stereo unspecified): the GI50 in [1] is 0.197 µM; in assay [2] it was 0.399 µM; in assay [3] it was 1.05 µM; in [4] it was 0.384 µM; in assay [5] it was 0.256 µM; in assay [6], 0.391 µM. In addition, the GI50 in [7] is 1.3 µM; in assay [8] it was 1.23 µM; in assay [9] it was 2.21 µM; in assay [10], 0.227 µM. Moreover, the TGI was found to be 0.56 µM in assay [1]; 1.71 µM in assay [2]; 2.69 µM in assay [3]; 1.4 µM in [4]; 0.629 µM in [5]; 2.14 µM in assay [6]. In addition, the TGI in [7] is 2.88 µM; in assay [8], 2.68 µM; in assay [9], 10.2 µM; in assay [10], 2.67 µM.

For `Cc1nc(C(=O)OCc2ccccc2)cc(OCc2ccccc2)c1C`, the GI50 in assay [1] was 18.6 µM; in [2] it was 21.4 µM; in [3] it was 24.4 µM; in assay [4], 14.6 µM; in assay [5], 21.9 µM; in assay [6], 17.5 µM. For the same molecule, the results for the GI50 in assay [7], in assay [8] and in assay [9] were 19.7 µM, 15.5 µM and > 89 µM, respectively. For the same molecule, the TGI was > 60.6 µM in assay [1]; 47.7 µM in [2]; 52.1 µM in assay [3]; 34.9 µM in assay [4]; 69.2 µM in assay [5]; 41.6 µM in assay [6]. Further, the TGI is 46.8 µM in assay [7], 29.8 µM in assay [8], > 100 µM in [9] and 28.6 µM in assay [10].

As for `CN1C2C=CC(=O)C1C(C#N)C2` (stereo unspecified), the TGI in assay [1] was 73.5 µM and > 100 µM; in assay [2], > 100 µM; in [3] it was 51 µM and > 100 µM; in assay [4] it was > 100 µM; in assay [5] it was 44.8 µM and > 100 µM; in assay [6], > 100 µM. For the same molecule, the TGI in assay [7] was > 100 µM; in assay [8] it was > 100 µM; in [9] it was > 100 µM; in assay [10] it was 81 µM and > 100 µM. Moreover, the GI50 in assay [4] is > 100 µM; in assay [5], 20.5 µM and 45.7 µM; in assay [8] it was 30 µM and > 100 µM; in [10], 22.7 µM and 61.6 µM.

Turning to `COc1ccc(C2=NNC(c3sc(Cl)nc3Cl)C2)cc1` (stereo unspecified), the GI50 in assay [1] is 3.78 µM; in assay [2], 5.21 µM; in assay [3], 11.2 µM; in assay [4], 3.12 µM; in assay [5], 3.6 µM; in assay [6], 5.65 µM. In addition, the GI50 in [7] is 25.1 µM; in assay [8] it was 10.9 µM; in assay [9], 13.2 µM; in [10], 2.54 µM. The TGI in [1] came out at 19.3 µM; in [2] it was 22.2 µM; in assay [3] it was 29 µM; in assay [4], 14 µM; in assay [5], 21.5 µM; in assay [6], 27.5 µM. In addition, the TGI in assay [7] amounted to 77.9 µM; in assay [8], 24.8 µM; in assay [9], 51.4 µM; in assay [10], 19.7 µM.

With `COc1ccc2c(CN3CCCC[C@H]3O)cc3cc4c(cc3c2c1)OCO4`, the GI50 in [1] is 0.369 µM; in assay [2] it was 0.368 µM; in [3] it was 0.218 µM; in assay [4], 0.62 µM; in assay [5], 0.268 µM; in assay [6], 0.417 µM. In addition, the GI50 in [7] is 0.354 µM; in assay [8], 0.329 µM; in assay [9], 0.275 µM; in assay [10], 0.195 µM. In addition, the TGI in [1] came to 10.6 µM; in [2], 9.3 µM; in assay [3] it was 0.61 µM; in [4] it was 8.43 µM; in assay [5], 3.94 µM; in [6], 5.74 µM. For the same molecule, the TGI in assay [7] worked out at 2.81 µM; in assay [8], 1.31 µM; in assay [9] it was 0.961 µM; in [10] it was 0.854 µM.

As to `Cc1cc(C)nc(NC(=O)COc2ccc(Cl)cc2)c1`, the TGI in assay [1], in [2], in assay [3], in [4], in assay [5] and in assay [6] was > 100 µM throughout. For the same molecule, the TGI in assay [7], in assay [8], in [9] and in [10] was > 100 µM in each case.

`CN(Cc1cnc2nc(N)nc(N)c2n1)c1c(Cl)cc(C(=O)NC(CCC(=O)O)C(=O)O)cc1Cl` (stereo unspecified): the GI50 in assay [1] is < 0.01 µM; in [2] it was < 0.01 µM; in [3], 81.4 µM; in assay [5], < 0.01 µM; in [6] it was < 0.0169 µM; in assay [7], 0.0156 µM. The GI50 in assay [8] is 0.313 µM; in [9], 0.807 µM; in assay [10] it was < 0.01 µM. For the same molecule, the TGI in [1], in assay [2], in assay [3], in assay [4], in assay [5] and in [6] was > 100 µM throughout. Further, the TGI in assay [8], in [9] and in assay [10] was > 100 µM throughout.
